The kinase profiling compilation of Christmann-Franck et al. (2016)

The compounds below were run on ARAF (human), P10398 [Y301D/Y302D] (assay: radiometric filter-binding kinase assay, Kinase HotSpot). Details: compound 0.5 µM; ATP 10 µM.
ARAF (human), P10398 [Y301D/Y302D], sequence (P10398 whole entry Y301D/Y302D, looked up): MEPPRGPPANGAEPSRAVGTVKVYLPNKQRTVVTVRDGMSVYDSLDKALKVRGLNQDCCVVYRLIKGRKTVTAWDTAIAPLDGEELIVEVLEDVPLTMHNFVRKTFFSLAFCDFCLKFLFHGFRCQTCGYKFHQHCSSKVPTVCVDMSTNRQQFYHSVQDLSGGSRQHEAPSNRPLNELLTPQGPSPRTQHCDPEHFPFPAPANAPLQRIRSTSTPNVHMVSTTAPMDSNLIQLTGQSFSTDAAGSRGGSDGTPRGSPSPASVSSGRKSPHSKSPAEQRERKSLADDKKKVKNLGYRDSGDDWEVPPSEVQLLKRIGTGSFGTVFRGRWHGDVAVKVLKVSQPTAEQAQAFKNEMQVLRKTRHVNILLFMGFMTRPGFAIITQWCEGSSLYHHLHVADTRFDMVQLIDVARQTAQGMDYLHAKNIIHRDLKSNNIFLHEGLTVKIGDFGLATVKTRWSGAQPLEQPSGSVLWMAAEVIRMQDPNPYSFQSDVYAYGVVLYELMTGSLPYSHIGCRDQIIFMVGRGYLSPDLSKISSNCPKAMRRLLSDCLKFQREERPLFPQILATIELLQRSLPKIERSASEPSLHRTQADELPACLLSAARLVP

Point of comparison: `Nc1ncnc2[nH]nc(Nc3ccc(F)cc3)c12`, residual activity 80.7%. Against it:
- O=C(O)c1ccc2c3c1cccc3c(=O)n1c3ccccc3nc21 — higher, 101%
- O=C1Nc2ccc(Br)cc2/C1=C\c1cc2c([nH]1)CCCC2 — higher, 106%
- Cc1ccc(Nc2nccc(N(C)c3ccc4c(C)n(C)nc4c3)n2)cc1S(N)(=O)=O — lower, 76.5%
- Cn1sc(=O)n(Cc2ccccc2)c1=O — higher, 94.6%
- N#C/C(=C1/Nc2ccccc2S1)c1ccnc(NCCc2cccnc2)n1 — higher, 97.6%
- c1ccc(-c2n[nH]c3c2oc2ccccc23)cc1 — higher, 93.8%
- O=S(=O)(NCCNC/C=C/c1ccc(Br)cc1)c1cccc2cnccc12 — higher, 95.8%
- COc1cccc(-c2cc(=O)c3ccccc3o2)c1N — higher, 98.9%
- N#C/C(=C(/N)Sc1ccc(N)cc1)c1ccccc1C(F)(F)F — higher, 98.8%
- O=c1cc(N2CCOCC2)oc2c(-c3ccccc3)cccc12 — higher, 105%
- Cn1cnc2cc3c(Nc4cccc(Br)c4)ncnc3cc21 — higher, 119%
- CC(C)N(CCC(=O)c1ccc2ccccc2c1)Cc1ccccc1 — higher, 104%
- CCN(CC)CCNC(=O)c1c(C)[nH]c(/C=C2\C(=O)Nc3ccc(Cl)cc32)c1C — higher, 132%
- O=C1C(Cl)=C(N2C(=O)CCC2=O)C(=O)c2ccccc21 — higher, 105%
- O=C(c1cc2cc(O)ccc2[nH]1)c1cc2cc(O)ccc2[nH]1 — higher, 98.6%
- O=C1NC(=O)C(c2c[nH]c3ccccc23)=C1c1c[nH]c2ccccc12 — higher, 155%
- N#C/C(=C\c1ccc(O)c(O)c1)C(=O)NCc1ccccc1 — higher, 95.2%
- CN(C)CCCn1cc(C2=C(c3c[nH]c4ccccc34)C(=O)NC2=O)c2ccccc21 — higher, 100%
- O=C1Cc2c([nH]c3ccc(Br)cc23)-c2ccccc2N1 — higher, 104%
- CN(C)C[C@H]1CCn2c(c(C3=C(c4cn(C)c5ccccc45)C(=O)NC3=O)c3ccccc32)C1 — higher, 109%
- Nc1ncnc2c1c(-c1ccc(Oc3ccccc3)cc1)cn2C1CCCC1 — lower, 53%
- COc1cc2c(cc1OC)-c1[nH]nc(Nc3cccc(F)c3)c1C2 — higher, 98.9%
- CCOc1cc2ncnc(Nc3cccc(Br)c3)c2cc1OCC — higher, 105%
- CCC(=O)Nc1ccc2ncnc(Nc3cccc(Br)c3)c2c1 — higher, 93.4%
- CCc1nc(-c2ccc(OC)cc2)[nH]c1-c1ccncc1 — higher, 99.6%
- N#Cc1c[nH]c2c[nH]/c(=N\Cc3cccnc3)cc2/c1=N\c1ccc(F)c(Cl)c1 — higher, 106%
- CS(=O)(=O)CCNCc1ccc(-c2ccc3ncnc(Nc4ccc(OCc5cccc(F)c5)c(Cl)c4)c3c2)o1 — higher, 85%
- COc1ccc(OC)c2c(=S)c3ccccc3[nH]c12 — higher, 122%
- Nc1nnc2[nH]c3ccccc3nc1-2 — higher, 119%
- Oc1cccc(-c2nc(N3CCOCC3)c3oc4ncccc4c3n2)c1 — higher, 92%
- CCCCc1c(-c2ccc(O)cc2)[nH]c2nccnc12 — higher, 92.6%
- CCN(CC)CCCCN1c2ccccc2Oc2ccc(Cl)cc21 — higher, 103%
- COc1cc2ncnc(N3CCN(C(=O)Nc4ccc(Oc5ccccc5)cc4)CC3)c2cc1OC — higher, 105%
- N#Cc1c(NC(=O)c2cccc3ccccc23)sc2c1CCCC2 — higher, 104%
- O=C1NC(=O)c2c1c1c3ccccc3[nH]c1n1cncc21 — higher, 93.8%
- Nc1nccc(-c2c(-c3ccc(F)cc3)ncn2C2CCNCC2)n1 — higher, 93.1%
- COc1cc2ncnc(Nc3ccc(Oc4ccccc4)cc3)c2cc1OC — lower, 73.3%
- FC(F)(F)c1ccc(/C=C/c2nc(COc3ccc(CCCCn4ccnn4)cc3)co2)cc1 — higher, 102%
- COc1ccc2c(c1)/C(=C/c1cnc[nH]1)C(O)=N2 — higher, 111%
- CO[C@@H]1[C@H](N(C)C(=O)c2ccccc2)C[C@H]2O[C@]1(C)n1c3ccccc3c3c4c(c5c6ccccc6n2c5c31)C(=O)NC4 — higher, 122%
- N#CCCc1ccc2c(c1)-c1[nH]c3ccc([N+](=O)[O-])cc3c1CC(=O)N2 — higher, 94.5%
- O=C(Nc1cccc(Nc2nccc(Nc3cccc(C(F)(F)F)c3)n2)c1)C1CC1 — higher, 90.2%
- N#CC(C#N)=C(N)/C(C#N)=C/c1ccc(O)cc1 — higher, 90.8%
- Cc1[nH]c(/C=C2\C(=O)Nc3ccc(S(=O)(=O)N(C)c4cccc(Cl)c4)cc32)c(C)c1C(=O)N1CCN(C)CC1 — higher, 120%
- O=c1[nH]c2ccccc2n1C1CCN(Cc2ccc(-c3nc4cc5[nH]cnc5cc4nc3-c3ccccc3)cc2)CC1 — higher, 99.2%
- COc1cc(Nc2c(C#N)cnc3cc(OCCCN4CCN(C)CC4)c(OC)cc23)c(Cl)cc1Cl — higher, 109%
- O=C1NC(=O)/C(=C\c2ccc3nccnc3c2)S1 — higher, 103%
- Cc1cccc(-c2nc(C(C)(C)C)[nH]c2-c2ccc3c(c2)OCO3)n1 — higher, 99.1%
- Nc1cccc(-c2cc3c(Oc4cccc(O)c4)ncnc3[nH]2)c1 — lower, 57.3%
- c1ccc(-c2n[nH]cc2-c2ccnc3ccccc23)nc1 — higher, 91.5%
- COc1ccc(CNC(=O)Nc2ncc([N+](=O)[O-])s2)cc1 — higher, 91%
- O=C1NC(=O)/C(=C/c2ccc3c(c2)OC(F)(F)O3)S1 — higher, 104%
- CC(C)[C@H](CO)Nc1nc(Nc2cc(N)cc(Cl)c2)c2ncn(C(C)C)c2n1 — higher, 82.4%
- O=C1Nc2ccccc2/C1=C1\Nc2ccccc2\C1=N/O — higher, 100%
- CC#CC(=O)Nc1cc2c(Nc3ccc(F)c(Cl)c3)ncnc2cn1 — lower, 74.1%
- COc1cc2ncnc(Nc3cccc(Cl)c3)c2cc1OC — higher, 108%
- COc1ccc(Cl)cc1NC(=O)Nc1cc(C)nc2ccccc12 — higher, 92.4%
- COc1cc2c(Nc3ccc(Br)cc3F)ncnc2cc1OCC1CCN(C)CC1 — higher, 84%
- CNC(=O)c1cc(Oc2ccc(NC(=O)Nc3ccc(Cl)c(C(F)(F)F)c3)cc2)ccn1 — lower, 7.04%
- COc1ccc(COc2ccc(Cc3cnc(N)nc3N)cc2OC)cc1 — higher, 96.6%
- O=C1NC(=O)c2cc(Nc3ccc(F)cc3)c(Nc3ccc(F)cc3)cc21 — higher, 90.7%
- CCOC(=O)c1c(C)[nH]c(/C=C2\C(=O)Nc3ccccc32)c1C — higher, 94.7%
- COc1cc2ncc(-c3ccccc3)nc2cc1OC — higher, 87.6%
- O=C(Nc1cccc(Nc2cc(Nc3cccc(C(F)(F)F)c3)ncn2)c1)C1CC1 — higher, 95.1%
- O=C(CCCc1ccc(-c2ccccc2F)cc1)Nc1ccc(O)cc1 — higher, 104%
- c1ccc2c(-c3ccncc3)c[nH]c2c1 — higher, 97.7%
- Cc1cc(Nc2nc(-c3ccccc3)nc3ccccc23)n[nH]1 — higher, 89.7%
- CC[n+]1c(/C=C/N(C)c2ccccc2)n(-c2ccccc2)c2ccc(-c3nc4ccccc4s3)cc21 — higher, 102%
- CCn1cnc2c(Nc3cccc(Cl)c3)nc(N[C@@H]3CCCC[C@@H]3N)nc21 — higher, 116%
- C[C@@H]1CCN(C(=O)CC#N)C[C@@H]1N(C)c1ncnc2[nH]ccc12 — higher, 102%
- CN(C)c1ccc(/C=C2\C(=O)Nc3ccccc32)cc1 — higher, 94.3%
- Cn1c2ccccc2c2c3c(c4c5ccccc5n(CCC#N)c4c21)CNC3=O — higher, 103%
- CCN(CC)CCNC(=O)c1c(C)[nH]c(/C=C2\C(=O)Nc3ccc(F)cc32)c1C — higher, 124%
- Cc1ccc(NC2=CC(=O)c3sc(C)nc3C2=O)cc1 — higher, 127%
- COc1cc2c(N3CCN(C(=O)Nc4ccc(OC(C)C)cc4)CC3)ncnc2cc1OCCCN1CCCCC1 — higher, 103%
- CN(C)S(=O)(=O)c1ccc2c(c1)/C(=C/c1cc3c([nH]1)CCCC3)C(=O)N2 — higher, 105%
- Nc1ncnc2c1cnn2-c1ccccc1 — higher, 99.3%

Each compound was assayed against DYRK1B (human) (UniProt Q9Y463) in the same assay as above. Details: compound 0.5 µM; ATP 10 µM.
DYRK1B (human), sequence (Q9Y463 whole entry, looked up): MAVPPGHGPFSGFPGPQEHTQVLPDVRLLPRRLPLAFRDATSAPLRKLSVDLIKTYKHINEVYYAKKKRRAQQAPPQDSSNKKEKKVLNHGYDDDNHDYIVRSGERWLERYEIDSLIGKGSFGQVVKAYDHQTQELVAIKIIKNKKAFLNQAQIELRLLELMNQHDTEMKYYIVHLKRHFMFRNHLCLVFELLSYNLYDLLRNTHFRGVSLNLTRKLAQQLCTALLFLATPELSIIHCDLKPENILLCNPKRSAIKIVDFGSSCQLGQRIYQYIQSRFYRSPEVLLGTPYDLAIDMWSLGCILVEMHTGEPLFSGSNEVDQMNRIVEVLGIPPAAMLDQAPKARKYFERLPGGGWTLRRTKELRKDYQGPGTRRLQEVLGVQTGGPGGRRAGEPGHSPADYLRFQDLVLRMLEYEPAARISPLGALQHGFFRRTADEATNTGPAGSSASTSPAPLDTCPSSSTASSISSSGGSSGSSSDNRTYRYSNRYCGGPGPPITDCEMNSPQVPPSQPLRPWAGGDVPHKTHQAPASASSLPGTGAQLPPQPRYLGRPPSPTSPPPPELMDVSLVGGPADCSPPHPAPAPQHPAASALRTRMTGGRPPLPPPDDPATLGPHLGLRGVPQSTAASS

For `COC(=O)[C@]1(O)C[C@@H]2O[C@@]1(C)n1c3ccccc3c3c4c(c5c6ccccc6n2c5c31)C(=O)NC4`, the residual activity was 3.88%.

The compounds below were run against LTK (human) (UniProt P29376) in the same assay as above. Details: compound 0.5 µM; ATP 10 µM.
LTK (human), sequence (P29376 whole entry, looked up): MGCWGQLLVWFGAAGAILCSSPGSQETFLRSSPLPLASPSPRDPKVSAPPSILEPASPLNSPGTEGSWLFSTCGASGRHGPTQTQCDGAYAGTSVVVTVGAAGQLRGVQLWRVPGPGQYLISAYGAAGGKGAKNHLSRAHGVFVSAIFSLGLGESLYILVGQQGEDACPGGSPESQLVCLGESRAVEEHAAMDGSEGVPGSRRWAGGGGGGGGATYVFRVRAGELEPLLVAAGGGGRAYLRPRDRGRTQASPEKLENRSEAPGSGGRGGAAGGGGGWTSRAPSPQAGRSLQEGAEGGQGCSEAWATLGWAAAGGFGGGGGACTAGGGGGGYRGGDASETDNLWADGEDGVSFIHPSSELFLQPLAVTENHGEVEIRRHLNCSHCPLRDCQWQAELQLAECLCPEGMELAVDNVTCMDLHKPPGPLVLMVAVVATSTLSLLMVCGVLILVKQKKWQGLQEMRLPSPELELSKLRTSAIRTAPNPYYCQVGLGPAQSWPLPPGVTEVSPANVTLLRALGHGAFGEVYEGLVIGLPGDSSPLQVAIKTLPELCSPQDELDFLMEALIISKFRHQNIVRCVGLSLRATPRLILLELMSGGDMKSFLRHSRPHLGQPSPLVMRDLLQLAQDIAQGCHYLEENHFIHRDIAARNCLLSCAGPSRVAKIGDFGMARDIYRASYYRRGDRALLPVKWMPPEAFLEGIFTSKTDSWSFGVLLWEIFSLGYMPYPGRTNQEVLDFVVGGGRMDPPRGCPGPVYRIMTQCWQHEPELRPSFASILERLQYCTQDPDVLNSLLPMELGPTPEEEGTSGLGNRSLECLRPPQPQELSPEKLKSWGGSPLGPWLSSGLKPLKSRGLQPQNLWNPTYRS

In the case of `COC(=O)[C@]1(O)C[C@@H]2O[C@@]1(C)n1c3ccccc3c3c4c(c5c6ccccc6n2c5c31)C(=O)NC4`, the residual activity is reported as 9.78%.

These compounds were tested against PRKCH (human) (UniProt P24723) in the same assay as above. Details: compound 0.5 µM; ATP 10 µM.
PRKCH (human), sequence (P24723 whole entry, looked up): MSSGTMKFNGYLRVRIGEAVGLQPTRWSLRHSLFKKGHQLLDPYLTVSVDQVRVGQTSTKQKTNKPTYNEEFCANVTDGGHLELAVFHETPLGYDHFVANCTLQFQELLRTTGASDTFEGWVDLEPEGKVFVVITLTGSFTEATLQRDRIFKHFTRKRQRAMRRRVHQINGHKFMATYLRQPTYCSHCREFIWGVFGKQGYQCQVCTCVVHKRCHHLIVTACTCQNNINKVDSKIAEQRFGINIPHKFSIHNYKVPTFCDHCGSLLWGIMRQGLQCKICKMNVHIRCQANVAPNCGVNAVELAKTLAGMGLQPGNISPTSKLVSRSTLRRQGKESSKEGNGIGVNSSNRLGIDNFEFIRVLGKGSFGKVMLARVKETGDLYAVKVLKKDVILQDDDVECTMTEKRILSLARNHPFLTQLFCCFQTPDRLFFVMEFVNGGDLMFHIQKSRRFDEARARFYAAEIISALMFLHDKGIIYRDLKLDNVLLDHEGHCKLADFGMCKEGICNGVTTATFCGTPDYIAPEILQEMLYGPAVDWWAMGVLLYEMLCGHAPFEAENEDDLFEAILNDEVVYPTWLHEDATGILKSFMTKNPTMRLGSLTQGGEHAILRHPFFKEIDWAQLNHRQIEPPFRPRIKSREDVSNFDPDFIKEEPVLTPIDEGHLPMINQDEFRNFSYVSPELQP

Work on `COC(=O)[C@]1(O)C[C@@H]2O[C@@]1(C)n1c3ccccc3c3c4c(c5c6ccccc6n2c5c31)C(=O)NC4` yielded a residual activity of 20.5%.

What follows are compounds tested against STK33 (human) (UniProt Q9BYT3) in the same assay as above. Details: compound 0.5 µM; ATP 10 µM.
STK33 (human), sequence (Q9BYT3 whole entry, looked up): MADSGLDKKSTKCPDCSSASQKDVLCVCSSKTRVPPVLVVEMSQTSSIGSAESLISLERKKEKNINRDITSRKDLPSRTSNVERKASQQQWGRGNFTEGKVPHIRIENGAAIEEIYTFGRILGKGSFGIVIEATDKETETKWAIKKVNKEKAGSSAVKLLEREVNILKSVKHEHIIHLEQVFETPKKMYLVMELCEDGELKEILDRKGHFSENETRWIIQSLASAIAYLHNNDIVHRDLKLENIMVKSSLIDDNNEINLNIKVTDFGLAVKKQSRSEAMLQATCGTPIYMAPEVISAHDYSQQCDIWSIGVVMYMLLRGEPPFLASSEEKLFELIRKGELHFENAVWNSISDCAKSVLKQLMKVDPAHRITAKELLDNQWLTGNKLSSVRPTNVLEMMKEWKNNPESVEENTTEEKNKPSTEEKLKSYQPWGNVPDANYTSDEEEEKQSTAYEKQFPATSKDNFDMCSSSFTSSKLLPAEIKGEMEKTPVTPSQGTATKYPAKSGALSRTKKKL

In the case of `COC(=O)[C@]1(O)C[C@@H]2O[C@@]1(C)n1c3ccccc3c3c4c(c5c6ccccc6n2c5c31)C(=O)NC4`, the residual activity is reported as 12.5%.
